Test system: form deprivation myopia (FDM) model
Assay: Efficacy research in form deprivation myopia (FDM) model
Assay type: in vivo, colored guinea pigs
Conditions: applied locally to eyes
Description: (1) A total of 40 healthy three-week-old colored guinea pigs were randomly selected and randomly divided into 8 groups with 5 guinea pigs in each group. The 8 guinea pig groups includes a first group: a normal control group, a second group: a myopia model-alone group, a third group: a myopia model+0.01% DHEA-based eye drop group, a fourth group: a myopia model+0.1% DHEA-based eye drop group, a fifth group: myopia model+1% DHEA-based eye drop group, a sixth group: a myopia model+2% DHEA-based eye drop group, a seventh group: a myopia model+DHEA-based eye ointment group, and an eighth group: a myopia model+DHEA-based gel group. There were no statistically-significant differences in the baseline diopter and AL of the right eye among the groups.
(2) Establishment of a form deprivation myopia (FDM) model: the right eye was covered and the left eye was normally opened. […]
A) Diopter measurement: the optometry was conducted with a streak retinoscope and lenses of different diopters, and an average of diopters in horizontal and vertical meridians was taken. The optometry was conducted 3 times, and an average was taken and recorded as a result.
B) AL measurement: ALs of both eyes were measured by an A-mode ultrasound instrument. Results of 6 measurements under waveform standards were selected, and an average was taken and recorded as a result, which was accurate to 0.01 mm.

**Q.** For C[C@]12CC[C@H](O)CC1=CC[C@@H]1[C@@H]2CC[C@]2(C)C(=O)CC[C@@H]12 [DHEA, 3-β-hydroxyandrost-5-en-17-one], which “Growth of axial length (AL) in animal models” value is on record?
**A.** reduce the growth of axial length (AL)

From patent US20250195540A1, “Use of dehydroepiandrosterone (DHEA) in preparation of drug for preventing and treating ophthalmic myopia, dosage forms of DHEA, and preparation methods of dosage forms” (Zhongshan Ophthalmic Center of Sun Yat-sen University, priority 2022, published 2025)
